Reference: the NIST ThermoML archive (doi:10.1016/j.fluid.2008.08.007)

Experiment: xn = mol fraction of the nth substance listed
Conditions: x1 = 0.75; for surface tension liquid-gas: Ring tensiometer; for mass density: 101 kPa, Liquid, westphal balance

[Cl-].[Cl-].[Zn+2] [zinc chloride] + CCCCn1cc[n+](C)c1.[Cl-]
Conditions | mass density [kg/m3] | surface tension liquid-gas [mN/m]
318.2 K | 1779.1 | 78.3
323.2 K | 1773.6 | 78
328.2 K | 1766.9 | 77.7
333.2 K | 1758 | 77.2
338.2 K | 1749.2 | 76.8
343.2 K | 1742.1 | 76.4
